From publication PMC8412899 (ACS Omega, 2021)

target: T1, MCL-1 (Homo sapiens, UniProt Q07820); assay: FP; assay type: binding; settings: not given
T1 sequence (Q07820 whole entry): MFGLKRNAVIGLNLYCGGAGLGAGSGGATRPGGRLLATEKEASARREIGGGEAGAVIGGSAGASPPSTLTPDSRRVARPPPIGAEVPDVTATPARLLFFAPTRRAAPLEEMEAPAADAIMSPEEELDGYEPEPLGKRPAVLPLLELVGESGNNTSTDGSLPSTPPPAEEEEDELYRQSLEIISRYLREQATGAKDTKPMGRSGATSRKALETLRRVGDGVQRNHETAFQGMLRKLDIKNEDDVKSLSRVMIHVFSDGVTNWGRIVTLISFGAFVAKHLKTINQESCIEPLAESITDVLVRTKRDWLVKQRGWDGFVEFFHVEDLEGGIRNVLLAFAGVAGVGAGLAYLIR

| SMILES | FP MCL-1 Ki |
| --- | --- |
| CCc1c(-c2cccc(Cl)c2C)c2c(N[C@H](Cc3ccccc3)C(=O)O)ncnc2n1CCC1CCCC1 (single isomer, unassigned) [Compound 9b, N-[(5Sa)-5-(3-Chloro-2-methylphenyl)-7-(2-cyclopentylethyl)-6-ethyl-7H-pyrrolo[2,3-d]pyrimidin-4-yl]-D-phenylalanine] | submicromolar |

same assay, conditions: @50 μM, highest tested dose

| SMILES | FP MCL-1 inhibition at 50 μM |
| --- | --- |
| CCc1c(-c2cccc(Cl)c2C)c2c(N[C@H](Cc3ccccc3)C(=O)O)ncnc2n1C(C)C [Compound 6b, N-[(5Sa)-5-(3-Chloro-2-methylphenyl)-6-ethyl-7-(propan-2-yl)-7H-pyrrolo[2,3-d]pyrimidin-4-yl]-D-phenylalanine] | 78%@50 μM |

same assay, conditions: FP MCL-1 Ki

| SMILES | Ki |
| --- | --- |
| CCc1c(-c2cccc(Cl)c2C)c2c(N[C@H](Cc3ccccc3)C(=O)O)ncnc2n1CCC1CCCC1 (single isomer, unassigned) [Compound 9b, N-[(5Sa)-5-(3-Chloro-2-methylphenyl)-7-(2-cyclopentylethyl)-6-ethyl-7H-pyrrolo[2,3-d]pyrimidin-4-yl]-D-phenylalanine] | 790 nM |
| CCc1c(-c2cccc(Cl)c2C)c2c(N[C@H](Cc3ccccc3)C(=O)O)ncnc2n1CCC1CCCC1 (single isomer, unassigned) [Compound 9a, N-[(5Ra)-5-(3-Chloro-2-methylphenyl)-7-(2-cyclopentylethyl)-6-ethyl-7H-pyrrolo[2,3-d]pyrimidin-4-yl]-D-phenylalanine] | 3500 nM |
| C=CCn1c(CC)c(-c2cccc(Cl)c2C)c2c(N[C@H](Cc3ccccc3)C(=O)O)ncnc21 (single isomer, unassigned) [Compound 3b, N-[(5Sa)-5-(3-Chloro-2-methylphenyl)-6-ethyl-7-(prop-2-en-1-yl)-7H-pyrrolo[2,3-d]pyrimidin-4-yl]-D-phenylalanine] | 9100 nM |
| CCc1c(-c2cccc(Cl)c2C)c2c(N[C@H](Cc3ccccc3)C(=O)O)ncnc2n1CC(F)(F)F (single isomer, unassigned) [Compound 5b, N-[(5Sa)-5-(3-Chloro-2-methylphenyl)-6-ethyl-7-(2,2,2-trifluoroethyl)-7H-pyrrolo[2,3-d]pyrimidin-4-yl]-D-phenylalanine] | 8500 nM |
| C=CCn1c(Br)c(-c2cccc(Cl)c2C)c2c(N[C@H](Cc3ccccc3)C(=O)O)ncnc21 (single isomer, unassigned) [Compound 4a, N-[6-Bromo-(5Sa)-5-(3-chloro-2-methylphenyl)-7-(prop-2-en-1-yl)-7H-pyrrolo[2,3-d]pyrimidin-4-yl]-D-phenylalanine] | 2500 nM |
| Cc1c(Cl)cccc1-c1c2n(c3ncnc(N[C@H](Cc4ccccc4)C(=O)O)c13)CCCC2 (single isomer, unassigned) [Compound 12a, N-[(5Ra)-5-(3-Chloro-2-methylphenyl)-6,7,8,9-tetrahydropyrimido[5,4-b]indolizin-4-yl]-D-phenylalanine] | 11000 nM |
| CC#CCn1c(CC)c(-c2cccc(Cl)c2C)c2c(N[C@H](Cc3ccccc3)C(=O)O)ncnc21 (single isomer, unassigned) [Compound 7b, N-[7-(But-2-yn-1-yl)-(5Sa)-5-(3-chloro-2-methylphenyl)-6-ethyl-7H-pyrrolo[2,3-d]pyrimidin-4-yl]-D-phenylalanine] | 330 nM |
| CC#CCn1c(CC)c(-c2cccc(Cl)c2C)c2c(N[C@H](Cc3ccccc3)C(=O)O)ncnc21 (single isomer, unassigned) [Compound 7a, N-[7-(But-2-yn-1-yl)-(5Ra)-5-(3-chloro-2-methylphenyl)-6-ethyl-7H-pyrrolo[2,3-d]pyrimidin-4-yl]-D-phenylalanine] | 5900 nM |
| C=CCn1c(CC)c(-c2cccc(Cl)c2C)c2c(N[C@H](Cc3ccccc3)C(=O)O)ncnc21 (single isomer, unassigned) [Compound 3a, N-[(5Ra)-5-(3-Chloro-2-methylphenyl)-6-ethyl-7-(prop-2-en-1-yl)-7H-pyrrolo[2,3-d]pyrimidin-4-yl]-D-phenylalanine] | 18000 nM |

Continued, values first:

| Ki | SMILES |
| --- | --- |
| 3500 nM | CCc1c(-c2cccc(Cl)c2C)c2c(N[C@H](Cc3ccccc3)C(=O)O)ncnc2n1Cc1cccc2ccccc12 (single isomer, unassigned) [Compound 10a, N-[(5Ra)-5-(3-Chloro-2-methylphenyl)-6-ethyl-7-(naphthalen-1-ylmethyl)-7H-pyrrolo[2,3-d]pyrimidin-4-yl]-D-Phenylalanine] |
| 14 nM | COc1ccccc1C[C@@H](Oc1ncnc2sc(-c3ccc(F)cc3)c(-c3ccc(OCCN4CCN(C)CC4)c(Cl)c3C)c12)C(=O)O [Compound 13, (2R)-2-{[(5Sa)-5-{3-Chloro-2-methyl-4-[2-(4-methylpiperazin-1-yl)ethoxy]phenyl}-6-(4-fluorophenyl)thieno[2,3-d]pyrimidin-4-yl]oxy}-3-(2-methoxyphenyl)propanoic Acid] |
| 47 nM | COc1ccccc1C[C@@H](Oc1cccc2cc(-c3ccc(F)cc3)n(-c3ccc(OCCN4CCN(C)CC4)c(Cl)c3C)c12)C(=O)O [Compound 15, (2R)-2-{[(1Ra)-1-{3-Chloro-2-methyl-4-[2-(4-methylpiperazin-1-yl)ethoxy]phenyl}-2-(4-fluorophenyl)-1H-indol-7-yl]oxy}-3-(2-methoxyphenyl)propanoic Acid] |
| 820 nM | COc1ccccc1C[C@@H](Oc1cccc2oc(-c3ccc(F)cc3)c(-c3ccc(OCCN4CCN(C)CC4)c(Cl)c3C)c12)C(=O)O [Compound 14, (2R)-2-{[(3Sa)-3-{3-Chloro-2-methyl-4-[2-(4-methylpiperazin-1-yl)ethoxy]phenyl}-2-(4-fluorophenyl)-1-benzofuran-4-yl]oxy}-3-(2-methoxyphenyl)propanoic Acid] |
| 6500 nM | CCc1c(-c2cccc(Cl)c2C)c2c(N[C@H](Cc3ccccc3)C(=O)O)ncnc2n1Cc1ccccc1 (single isomer, unassigned) [Compound 8a, N-[7-Benzyl-(5Ra)-5-(3-chloro-2-methylphenyl)-6-ethyl-7H-pyrrolo[2,3-d]pyrimidin-4-yl]-D-phenylalanine] |
| 5900 nM | Cc1c(Cl)cccc1-c1c2n(c3ncnc(N[C@H](Cc4ccccc4)C(=O)O)c13)CCCC2 (single isomer, unassigned) [Compound 12b, N-[(5Sa)-5-(3-Chloro-2-methylphenyl)-6,7,8,9-tetrahydropyrimido[5,4-b]indolizin-4-yl]-D-phenylalanine] |
| 260 nM | CCc1c(-c2cccc(Cl)c2C)c2c(N[C@H](Cc3ccccc3)C(=O)O)ncnc2n1Cc1cccc2ccccc12 (single isomer, unassigned) [Compound 10b, N-[(5Sa)-5-(3-Chloro-2-methylphenyl)-6-ethyl-7-(naphthalen-1-ylmethyl)-7H-pyrrolo[2,3-d]pyrimidin-4-yl]-D-phenylalanine] |
| 530 nM | CCc1c(-c2cccc(Cl)c2C)c2c(N[C@H](Cc3ccccc3)C(=O)O)ncnc2n1Cc1ccccc1 (single isomer, unassigned) [Compound 8b, N-[7-Benzyl-(5Sa)-5-(3-chloro-2-methylphenyl)-6-ethyl-7H-pyrrolo[2,3-d]pyrimidin-4-yl]-D-phenylalanine] |

same assay, conditions: less active form compared to more active isomer 3b

| SMILES | fold less potent (FP affinity) |
| --- | --- |
| C=CCn1c(CC)c(-c2cccc(Cl)c2C)c2c(N[C@H](Cc3ccccc3)C(=O)O)ncnc21 (single isomer, unassigned) [Compound 3a, N-[(5Ra)-5-(3-Chloro-2-methylphenyl)-6-ethyl-7-(prop-2-en-1-yl)-7H-pyrrolo[2,3-d]pyrimidin-4-yl]-D-phenylalanine] | 2 fold |

same assay, conditions: read-out: FP MCL-1 inhibition at 50 μM, @50 μM, highest tested dose

| SMILES | inhibition at 50 µM |
| --- | --- |
| CCc1c(-c2cccc(Cl)c2C)c2c(N[C@H](Cc3ccccc3)C(=O)O)ncnc2n1CC(F)(F)F (single isomer, unassigned) [Compound 5a, N-[(5Ra)-5-(3-Chloro-2-methylphenyl)-6-ethyl-7-(2,2,2-trifluoroethyl)-7H-pyrrolo[2,3-d]pyrimidin-4-yl]-D-phenylalanine] | 63% |
| CCc1c(-c2cccc(Cl)c2C)c2c(N[C@H](Cc3ccccc3)C(=O)O)ncnc2n1C(C)C [Compound 6a, N-[(5Ra)-5-(3-Chloro-2-methylphenyl)-6-ethyl-7-(propan-2-yl)-7H-pyrrolo[2,3-d]pyrimidin-4-yl]-D-phenylalanine] | 67% |
| C=CCn1c(Br)c(-c2cccc(Cl)c2C)c2c(N[C@H](Cc3ccccc3)C(=O)O)ncnc21 (single isomer, unassigned) [Compound 4b, N-[6-Bromo-(5Ra)-5-(3-chloro-2-methylphenyl)-7-(prop-2-en-1-yl)-7H-pyrrolo[2,3-d]pyrimidin-4-yl]-D-phenylalanine] | 66% |
| CCc1c(-c2cccc(Cl)c2C)c2c(N[C@H](Cc3ccccc3)C(=O)O)ncnc2n1C (single isomer, unassigned) [Compound 2a, N-[(5Ra)-5-(3-Chloro-2-methylphenyl)-6-ethyl-7-methyl-7H-pyrrolo[2,3-d]pyrimidin-4-yl]-D-phenylalanine] | 65% |

target: T1, MCL-1; assay: QA; assay type: binding; settings: QA MCL-1 Ki

| SMILES | Ki |
| --- | --- |
| COc1ccccc1-c1nccc(COc2ccccc2C[C@@H](Oc2cccc3oc(-c4ccc(F)cc4)c(-c4ccc(OCCN5CCN(C)CC5)c(Cl)c4C)c23)C(=O)O)n1 [Compound 21, (2R)-2-{[(3Sa)-3-{3-Chloro-2-methyl-4-[2-(4-methylpiperazin-1-yl)ethoxy]phenyl}-2-(4-fluorophenyl)-1-benzofuran-4-yl]oxy}-3-(2-{[2-(2-methoxyphenyl)pyrimidin-4-yl]methoxy}phenyl)propanoic Acid] | 1.3 nM |
| COc1ccccc1-c1nccc(COc2ccccc2C[C@@H](Nc2ccnc3sc(-c4ccc(F)cc4)c(-c4ccc(OCCN5CCN(C)CC5)c(Cl)c4C)c23)C(=O)O)n1 [Compound 18, N-[3-{3-Chloro-2-methyl-4-[2-(4-methylpiperazin-1-yl)ethoxy]phenyl}-2-(4-fluorophenyl)thieno[2,3-b]pyridin-4-yl]-2-{[2-(2-methoxyphenyl)pyrimidin-4-yl]methoxy}-D-phenylalanine] | 0.1 nM |
| COc1ccccc1-c1nccc(COc2ccccc2C[C@@H](Nc2ncnc3sc(-c4ccc(F)cc4)c(-c4ccc(OCCN5CCN(C)CC5)c(Cl)c4C)c23)C(=O)O)n1 [Compound 16b, N-[(5Sa)-5-{3-Chloro-2-methyl-4-[2-(4-methylpiperazin-1-yl)ethoxy]phenyl}-6-(4-fluorophenyl)thieno[2,3-d]pyrimidin-4-yl]-2-{[2-(2-methoxyphenyl)pyrimidin-4-yl]methoxy}-D-phenylalanine] | 0.303 nM |

test system: NCI-H929 cells; assay: MTT cell viability assay of NCI H929 cell line; assay type: cell-based; settings: compared to 13

| SMILES | loss of cellular activity |
| --- | --- |
| COc1ccccc1C[C@@H](Oc1cccc2cc(-c3ccc(F)cc3)n(-c3ccc(OCCN4CCN(C)CC4)c(Cl)c3C)c12)C(=O)O [Compound 15, (2R)-2-{[(1Ra)-1-{3-Chloro-2-methyl-4-[2-(4-methylpiperazin-1-yl)ethoxy]phenyl}-2-(4-fluorophenyl)-1H-indol-7-yl]oxy}-3-(2-methoxyphenyl)propanoic Acid] | more than 10 fold |
| COc1ccccc1C[C@@H](Oc1cccc2oc(-c3ccc(F)cc3)c(-c3ccc(OCCN4CCN(C)CC4)c(Cl)c3C)c12)C(=O)O [Compound 14, (2R)-2-{[(3Sa)-3-{3-Chloro-2-methyl-4-[2-(4-methylpiperazin-1-yl)ethoxy]phenyl}-2-(4-fluorophenyl)-1-benzofuran-4-yl]oxy}-3-(2-methoxyphenyl)propanoic Acid] | more than 10 fold |
